The results in this text go back to patent US20180153850A1, “COMPOSITIONS AND METHODS FOR TREATMENT OF CANCER” (The Regents of the University of California, priority 2015, published 2018).

For one data set, the system named is TaxR cells. Briefly: Cell growth assay in TaxR cells. Type of data set: cell-based. The conditions noted are these: 24 h, read-out: IC50 value of docetaxel, TaxR cells. On the procedure:
Top panel, fluorescent and phase contrast pictures are shown. Lower panel, rhodamine intake ratio. […] Cell numbers were counted after 24 hrs of treatment.
Fluorescent and phase contrast pictures are shown. Lower panel is the rhodamine intake ratio. […] Cell numbers were counted after 24 hrs of treatment. […] The numbers of colonies were counted after 3 weeks.
(§1) Cells were seeded in 12-well plates at a density of 1×10^5 cells per well. Cells were treated and total cell numbers were counted using a Coulter cell counter.

For a further data set, the system named is DU145-DTXR cells. The data set is described as follows: Cell growth assay in DU145-DTXR cells. Particulars: for IC50: 24 h; for docetaxel resistance in DU145-DTXR cells: 10 nM docetaxel with 0.5 μM elacridar or 20 μM bicalutamide or enzalutamide, 48 hrs. Type of data set: cell-based. On the procedure:
(§2) Top panel, fluorescent and phase contrast pictures are shown. Lower panel, rhodamine intake ratio. […] Cell numbers were counted after 24 hrs of treatment. […] Cell numbers were counted after 24 hrs of treatment. […] Tumor sizes were measured twice a week.
DU145-DTXR cells were plated in 12-well plate at 1×10^5 cells per well. […] FIG. 8A: Cell numbers were counted. FIG. 8B: Cell pictures were taken to show the cell survival inhibition.
DU145-DTXR cells were plated in 12-well plate at 1×10^5 cells per well. […] Cell numbers were counted (top panel: bicalutamide; bottom panel: enzalutamide). FIG. 9B: DU145 parental cells and DU145-DTX cells were plated in 12-well plate at 1×10^5 cells per well. […] Cell numbers were counted.
as §1

A further data set has as its system DU145 cells. Briefly: Cell growth assay in parental DU145 cells. It is filed as cell-based. Particulars: Homo sapiens, DU-145, read-out: IC50 to docetaxel, 24 hrs. On the procedure: as §2, §1
In another data set the test system is C4-2B tumors. The data set is described as follows: In vivo tumorigenesis assay, C4-2B tumors. Also on record: species or system SCID mice. Particulars: docetaxel 10 mg/kg once a week. As for the experimental part: (§3) Tumor sizes were measured twice a week. *, P<0.05. **, P<0.01. DTX, docetaxel, Bic, bicalutamide.
(§4) Tumor tissues were harvested after 3 weeks of treatment.

In the next data set the test system is TaxR tumors. Briefly: In vivo tumorigenesis assay, TaxR tumors. Also on record: species or system SCID mice. Particulars: docetaxel 10 mg/kg i.p. once a week; bicalutamide 25 mg/kg p.o. 5 days a week; 3 weeks. As for the experimental part: as §3, §4
A further data set has as its target ABCB1 (P-gp) ATPase (Homo sapiens, UniProt P08183). Briefly: in vitro.
A further data set concerns the target ABCB1 (Homo sapiens, UniProt P08183). Particulars: 48 h, 20 μmol/L.
In data set [1] the target is ABCB1 (P-glycoprotein, MDR1) (Homo sapiens, UniProt P08183). Briefly: in vitro.
Experimental: FIG. 1A: C4-2B and TaxR cells were seeded in 6-well plates at a density of 2×10^5 cells per well. […] Cells were incubated with 1 μg/mL Rhodamine 123 for another 4 hrs. The cells were then washed 3 times with 1×PBS. Fluorescence was detected at an excitation wavelength of 480 nm and an emission wavelength of 534 nm. […] Lower panel, rhodamine intake ratio.
Cells were incubated with 1 μg/mL Rhodamine 123 for another 4 hrs. The cells were then washed three times with 1×PBS. Fluorescence was detected at an excitation wavelength of 480 nm and an emission wavelength of 534 nm. […] Lower panel is the rhodamine intake ratio.
Cells were seeded in 6-well plates at a density of 2×10^5 cells per well. […] The cells were then washed three times with PBS. […] Each experiment was repeated at least 3 times.

Read-outs that look alike come from different tables or passages of the source.

Chain of ABCB1 (P-gp) ATPase (P08183 whole entry): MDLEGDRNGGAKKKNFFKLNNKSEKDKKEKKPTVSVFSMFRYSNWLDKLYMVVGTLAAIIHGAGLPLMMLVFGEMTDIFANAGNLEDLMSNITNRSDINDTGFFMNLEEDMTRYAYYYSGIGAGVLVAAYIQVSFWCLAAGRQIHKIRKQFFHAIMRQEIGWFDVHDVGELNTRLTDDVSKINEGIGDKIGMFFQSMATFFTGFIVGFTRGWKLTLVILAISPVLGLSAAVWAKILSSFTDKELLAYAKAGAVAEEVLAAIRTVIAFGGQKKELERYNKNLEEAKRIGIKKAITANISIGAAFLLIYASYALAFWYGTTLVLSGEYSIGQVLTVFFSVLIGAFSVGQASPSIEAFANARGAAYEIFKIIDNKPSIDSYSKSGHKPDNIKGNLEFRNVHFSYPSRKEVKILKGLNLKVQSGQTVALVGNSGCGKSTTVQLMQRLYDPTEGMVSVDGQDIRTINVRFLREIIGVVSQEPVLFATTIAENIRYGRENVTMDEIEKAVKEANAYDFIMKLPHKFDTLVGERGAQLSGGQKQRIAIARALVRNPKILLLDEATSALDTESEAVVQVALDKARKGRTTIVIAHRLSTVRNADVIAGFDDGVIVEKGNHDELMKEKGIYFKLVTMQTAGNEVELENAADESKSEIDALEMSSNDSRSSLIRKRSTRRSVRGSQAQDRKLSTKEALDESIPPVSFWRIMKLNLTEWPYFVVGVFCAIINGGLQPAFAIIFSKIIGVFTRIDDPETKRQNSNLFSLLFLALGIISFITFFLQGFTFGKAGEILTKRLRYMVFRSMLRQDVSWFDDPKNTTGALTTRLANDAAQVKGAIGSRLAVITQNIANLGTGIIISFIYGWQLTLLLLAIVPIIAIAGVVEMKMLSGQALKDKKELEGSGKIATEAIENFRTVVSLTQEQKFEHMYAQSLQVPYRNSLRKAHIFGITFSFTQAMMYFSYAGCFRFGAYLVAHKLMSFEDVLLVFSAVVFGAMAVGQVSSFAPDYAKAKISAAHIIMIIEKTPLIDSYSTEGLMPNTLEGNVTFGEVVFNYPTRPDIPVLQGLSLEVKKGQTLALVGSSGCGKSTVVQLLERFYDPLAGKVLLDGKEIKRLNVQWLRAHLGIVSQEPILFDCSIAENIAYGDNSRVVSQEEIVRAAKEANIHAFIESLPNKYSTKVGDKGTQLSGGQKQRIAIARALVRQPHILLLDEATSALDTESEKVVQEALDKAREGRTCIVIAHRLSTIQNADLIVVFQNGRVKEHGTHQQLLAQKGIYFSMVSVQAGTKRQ
Chain of ABCB1 (P08183 whole entry): as above
Chain of ABCB1 (P-glycoprotein, MDR1) (P08183 whole entry): as above

A word on the IC50: it is the concentration that gives 50% inhibition. As for `CC(=O)O[C@@]12CO[C@@H]1C[C@H](O)[C@@]1(C)C(=O)[C@H](O)C3=C(C)[C@@H](OC(=O)[C@H](O)[C@@H](NC(=O)OC(C)(C)C)c4ccccc4)C[C@@](O)([C@@H](OC(=O)c4ccccc4)[C@H]21)C3(C)C` [docetaxel], the IC50 with TaxR cells (docetaxel alone, 24 hrs) is 140 nM; with TaxR cells (in combination with 20 μM bicalutamide, 24 hrs) it was roughly 5 nM; in the data set on TaxR cells (in combination with 20 μM enzalutamide, 24 hr) it was roughly 3 nM; in the data set with DU145-DTXR cells (read-out: IC50 to docetaxel) it was 52 nM; with DU145-DTXR cells (read-out: IC50 value of docetaxel) it was roughly 7.5 nM; with DU145 cells, 4.3 nM. Besides, the “effect on growth of DU145-DTXR cells” value with DU145-DTXR cells (10 nM docetaxel, 20 μM bicalutamide, alone or combined, 24 hrs) was “only minimal effects”. In the data set with C4-2B tumors, the C4-2B tumor growth entry is given as “significantly repressed”. The “tumor growth of TaxR cells” value in the data set on TaxR tumors was “Neither docetaxel nor bicalutamide treatment alone inhibited tumor growth”.
What is called inhibition is the relative decrease from the control value, in per cent. Low values mean a response near the control, high ones a response far below the control. As for `COc1cc2c(cc1OC)CN(CCc1ccc(NC(=O)c3cccc4c(=O)c5cccc(OC)c5[nH]c34)cc1)CC2` [elacridar], in the data set with DU145-DTXR cells, the “docetaxel resistance in DU145-DTXR cells” value is given as “reversal of docetaxel resistance”. Further, on ABCB1 (P-gp) ATPase, the inhibition at 40 min, 2.5 µM is 69%.
For `CNC(=O)c1ccc(N2C(=S)N(c3ccc(C#N)c(C(F)(F)F)c3)C(=O)C2(C)C)cc1F` [enzalutamide], the “docetaxel resistance in DU145-DTXR cells” value in the data set with DU145-DTXR cells was “reversal of docetaxel resistance”. On ABCB1, this compound had a rhodamine intake of 66.2%. The same compound came in with an inhibition at 24 h, 20 μM in data set [1] of roughly 60%. The compound also returned an inhibition at 40 min, 40 µM against ABCB1 (P-gp) ATPase of 60%.
